Measured values from patent US20100130432A1, “Non-Natural Amino Acids and Neurotensin Analogues Thereof” (priority 2005, published 2010).
Non-standard residues stand in square brackets, D forms with d. Residues, ends and D or L forms follow the SMILES beside them. *: point of attachment. Tle = CC(C)(C)[C@H](N)C(=O)O; X1 = C[C@@H](CCCCCN)C(=O)*

Assays:
[1] = test system: L5178Y TK+/−mouse lymphoma cells; conditions: initial data, with and without S9
mouse bone marrow cells = assay: Micronucleus study; type: in vivo; conditions: initial data
Experimental: Genetic Toxicology. […] Experimental protocols are as follows.
In the micronucleus study, 90 CD-1 mice used in the study consisted of 10/sex/group in Groups 1-4 (control, low-, mid-, and high-dose) and 5/sex in the positive control group. Test peptide as administered orally, the positive control, Cyclophosphamide at 80 mg/kg, as administered orally. Approximately 24 and 48 hours after dosing, mice were killed and bone marrow obtained from both femurs. A slide of a bone marrow suspension was prepared, stained with Wright-Giemsa stain, dried, and scored blind. The number of polychromatic erythrocytes (PCE) among the total erythrocytes (PCE+normochromatic erythrocytes (NCE)) were determined for each animal by counting at least 200 erythrocytes. The number of micronucleated polychromatic erythrocytes (MPCE) then were scored for 2000 PCE per animal. A positive result was obtained, if there is a positive dose-response trend or statistically significant increase in the number of MPCE at one or more dose levels compared to controls.

[2] = target: hERG (human ether-a-go-go related gene) channels (Homo sapiens, UniProt Q12809); conditions: initial results
Experimental: hERG Assay. The objective of the hERG study is to assess the effects of the test article on the rapidly activating inward rectifying potassium current (IKr) conducted by hERG (human ether-a-go-go related gene) channels stably expressed in a HEK293 cell line. The method used is as follows. HEK293 cells, stably transfected with hERG cDNA, were used in the study. All experiments were performed at near-physiological temperature (35±2° C.). A positive control (60 nM terfenadine) was applied to two cells (n 2). Cells were be transferred to the recording chamber and superfused with HB-PS solution. The recording chamber and bathing solution were maintained at a temperature of 35±2° C. using a combination of in-line solution pre-heater, chamber floor heater, and feedback temperature controller. Bath temperature were measured using a thermistor probe.
Patch pipettes were made from glass capillary tubing using a P-97 micropipette puller (Sutter Instruments, CA). A commercial patch clamp amplifier was used for whole cell recordings. Before digitization, current records were low-pass filtered at one-fifth of the sampling frequency.
Cells stably expressing hERG were held at −80 mV.

[3] = Pharmacokinetics of ABS201 in blood/plasma (LC/MS/MS)
Description: At selected time points, blood was removed or brain harvested and the concentration of the peptide analog determined using LC/MS/MS.
These samples were then used for the determination of plasma and brain drug levels by LC/MS/MS for estimating BBB penetration and pharmacokinetic parameters.

NTR-2 = NTR-2 (Homo sapiens, UniProt O95665); assay: Functional agonism: induction of cAMP and inositol phosphate production; type: cell-based
Sequence of NTR-2 (O95665 whole entry, species assumed): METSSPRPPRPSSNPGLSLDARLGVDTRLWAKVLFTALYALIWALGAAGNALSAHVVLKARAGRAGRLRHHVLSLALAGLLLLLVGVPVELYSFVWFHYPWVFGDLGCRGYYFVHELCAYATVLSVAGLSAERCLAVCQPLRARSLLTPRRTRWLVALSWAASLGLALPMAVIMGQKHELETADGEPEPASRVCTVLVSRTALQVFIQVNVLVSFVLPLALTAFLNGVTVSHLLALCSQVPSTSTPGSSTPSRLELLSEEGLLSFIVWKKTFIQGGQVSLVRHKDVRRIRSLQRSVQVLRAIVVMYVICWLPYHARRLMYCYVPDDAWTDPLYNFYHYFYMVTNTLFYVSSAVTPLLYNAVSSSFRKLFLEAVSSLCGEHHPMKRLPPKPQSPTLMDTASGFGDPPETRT

Sequence of hERG (human ether-a-go-go related gene) channels (Q12809 whole entry): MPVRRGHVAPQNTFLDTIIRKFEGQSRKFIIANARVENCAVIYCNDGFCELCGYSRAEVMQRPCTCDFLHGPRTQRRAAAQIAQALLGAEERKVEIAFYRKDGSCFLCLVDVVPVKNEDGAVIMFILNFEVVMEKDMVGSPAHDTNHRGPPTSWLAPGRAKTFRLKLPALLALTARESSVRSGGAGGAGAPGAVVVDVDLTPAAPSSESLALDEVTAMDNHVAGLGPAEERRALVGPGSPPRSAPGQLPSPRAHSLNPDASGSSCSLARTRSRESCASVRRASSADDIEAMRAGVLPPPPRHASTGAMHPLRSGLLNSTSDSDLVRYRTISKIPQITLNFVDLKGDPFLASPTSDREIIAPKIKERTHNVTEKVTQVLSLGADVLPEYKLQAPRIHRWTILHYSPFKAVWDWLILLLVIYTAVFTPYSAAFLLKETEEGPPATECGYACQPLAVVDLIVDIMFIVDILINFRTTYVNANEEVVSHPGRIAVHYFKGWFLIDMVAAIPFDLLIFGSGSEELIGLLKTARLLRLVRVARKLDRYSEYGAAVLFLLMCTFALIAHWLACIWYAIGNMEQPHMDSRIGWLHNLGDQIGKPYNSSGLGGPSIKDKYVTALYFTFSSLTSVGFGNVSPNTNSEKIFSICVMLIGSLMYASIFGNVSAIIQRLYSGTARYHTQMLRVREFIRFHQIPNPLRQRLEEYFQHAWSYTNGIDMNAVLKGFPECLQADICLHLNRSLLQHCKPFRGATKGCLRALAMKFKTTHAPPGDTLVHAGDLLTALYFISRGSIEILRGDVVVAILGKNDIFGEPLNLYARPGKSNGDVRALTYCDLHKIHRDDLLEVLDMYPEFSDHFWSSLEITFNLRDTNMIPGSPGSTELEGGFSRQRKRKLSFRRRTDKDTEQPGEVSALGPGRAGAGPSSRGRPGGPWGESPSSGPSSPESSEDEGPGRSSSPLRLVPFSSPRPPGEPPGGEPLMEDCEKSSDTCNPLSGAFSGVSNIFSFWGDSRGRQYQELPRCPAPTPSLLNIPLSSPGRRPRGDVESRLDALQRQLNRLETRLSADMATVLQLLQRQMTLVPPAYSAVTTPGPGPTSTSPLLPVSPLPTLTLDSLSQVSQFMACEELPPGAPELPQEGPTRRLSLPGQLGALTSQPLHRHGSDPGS

CC(C)C[C@H](NC(=O)[C@@H](NC(=O)[C@H](Cc1ccc(O)cc1)NC(=O)[C@@H]1CCCN1C(=O)[C@H](CCCNC(=N)N)NC(=O)[C@@H](C)CCCCCN)C(C)(C)C)C(=O)O [ABS201, hLys-Arg-Pro-Tyr-t-Leu-Leu] (X1-RPY[Tle]L-OH)
mouse lymphoma study result [1]: inactive | micronucleus study result (mouse bone marrow cells): inactive | hERG study result [2]: inactive | time by which plasma levels decreased below the LLOD ([3]; IV 1 mg/kg): ≤ 45 min | clearance as % of rat hepatic blood flow ([3]; IV 5 mg/kg): 74.02% | time measurable in whole blood ([3]; IV 5 mg/kg): up to 120 minutes | time detectable in the blood and brain ([3]; IV 5 mg/kg and oral 50 mg/kg): up to 120 minutes | plasma levels ([3]; oral 30 mg/kg): below the LLOD at all times | levels in whole blood ([3]; oral 50 mg/kg): below the LLOD at all times | Vd ([3]; rat, in vivo, iv, 5 mg/kg): 0.87 ± 0.27 L/kg | clearance ([3]; rat, in vivo, iv, 5 mg/kg): 40.8 mL/min/kg | Functional NTR-2 Agonist (NTR-2): Yes
